Data set [1] relates to bovine erythrocytes.
Procedure: EDTA-anticoagulated bovine blood was diluted in PBS, pH=7.2. The erythrocytes were separated by centrifugation for 10 min at 3000 rpm. The supernatant was removed and discarded. The packed cell volume (PCV) was washed three more times with PBS. The PCV was diluted appropriately in PBS to obtain suspensions of 8×10^7 and 1.48×10^8 cells/mL. Cell counts were preformed using an Improved Neubauer Brightline hemacytometer (depth=0.1 mm) from Hausser Scientific (Horsham, Pa.). The AmB/polymer formulations and polymer blanks were brought to room temperature and reconstituted with 1.0 mL of PBS just prior to use. 1.85 mL of the 8×10^7 cells/mL suspension was incubated at 37° C. in a shaking water bath (75 rpm) with 150 μL of AmB/polymer formulation, polymer blank containing no AmB, or PBS buffer (control) for 24 h. […] The supernatant was collected, and hemoglobin content was determined by absorbance at 542 nm. […] Percent hemolysis is reported by 100(Abss-Absb)/(Abs1-Absb) where Abss is the absorbance of the sample, Absb is the average absorbance of the buffer, and Abss is the average absorbance of the lysed samples. […]
An 8 mg/mL AmB in DMSO stock solution was prepared. […] The samples were collected over time, and percent hemolysis was determined as described above.
A short description of data set [2]: Drug loading of PEG-b-PCL (5000:4000) micelles, cosolvent evaporation versus dialysis. In kind it is physicochemical.

Structures are written as SMILES.

For the compound `C[C@@H]1[C@H](O)[C@@H](C)/C=C/C=C/C=C/C=C/C=C/C=C/C=C/[C@H](O[C@@H]2O[C@H](C)[C@@H](O)[C@H](N)[C@@H]2O)C[C@@H]2O[C@](O)(C[C@@H](O)C[C@@H](O)[C@H](O)CC[C@@H](O)C[C@@H](O)CC(=O)O[C@H]1C)C[C@H](O)[C@H]2C(=O)O` [Free AmB, amphotericin B], the “time-dependent hemolytic profile / onset of hemolysis” value in data set [1] is “immediate hemolysis”. In data set [2] (Cosolvent Evaporation), the “% Yield of Drug” value is recorded as 48% and the “Final Drug/Polymer Mole Ratio” value is reported as 0.11. In data set [2] (Dialysis), the “% Yield of Drug” value is recorded as 25% and the “Final Drug/Polymer Mole Ratio” value was 0.055.

Consider `CC(C)OC(=O)C(C)(C)Oc1ccc(C(=O)c2ccc(Cl)cc2)cc1` [Fenofibrate, 2-[4-(4-chlorobenzoyl)phenoxy]-2-methylpropanoic acid 1-methylethyl ester], for which the “% Yield of Drug” value is recorded as 88% in data set [2] (Cosolvent Evaporation) and 31% in data set [2] (Dialysis).

Values taken from US20090036389A1, “Polymeric Micelle Formulations of Hydrophobic Compounds and Methods” (priority 2002, published 2009).
